Here are results for 19 compounds from patent publication US4045563A, “Substituted 2-[pyridylalkylenesulfinyl]-benzimidazoles with gastric acid secretion inhibiting effects” (AB Hassle, priority 1975, dated 1977).

The first assay concerns gastric acid secretion. Nature of the assay: Inhibition of pentagastrin-induced gastric acid secretion in anesthetized dogs (modified perfusion technique, intraduodenal test compound). The format is in vivo. Particulars: 1 mg per kg body weight, dog, pentagastrin-stimulated. The protocol:
To test the gastric acid secretion activity, a modified perfusion technique was performed using dogs as test animals. An anesthetized dog was fitted with one tube going through the esophagus to the stomach for instillation of fluid, and a second tube extending through the duodenum by way of the ligated pylorus for fluid drainage. Every 15 minutes, 5 ml/kg body weight of a saline solution was introduced into the test animal, and drained samples collected and titrated to pH 7.0 with 0.04N NaOH using a radiometer automatic titrator to calculate the acid output.
Gastric acid secretion was induced by pentagastrin by administering 1-2 μg/kg per hour, giving a submaximal secretory response. Test compounds in a 0.5% Methocel (methyl cellulose) suspension were introduced into the duodenum close to the ligation at least two hours following onset of stimulation, when the secretion had reached a steady level for three consecutive 15 minute periods.
The following gastric acid inhibiting effect data were obtained for a number of compounds tested according to the method described.
Turning to `[O-][S+](Cc1ccccn1)c1nc2ccccc2[nH]1` (stereo not shown) [Example 1, 2-[2-pyridylmethylsulfinyl]-benzimidazole], the “inhibited gastric acid secretion” value was found to be 90%.

The assay is the same for the next values; noted with them: Canis lupus familiaris, dose 1 mg/kg, dog, pentagastrin-stimulated.
For orientation: inhibition in vivo means the drop in the measured response relative to a control, in per cent. In the case of `CC(c1ccccn1)[S+]([O-])c1nc2ccccc2[nH]1` (stereo not shown) [Example 16], the inhibition in vivo at 1 mg/kg worked out at 37%.

`Cc1ccc2[nH]c([S+]([O-])Cc3ccccn3)nc2c1` (stereo not shown) [Example 21] registered an inhibition in vivo at 1 mg/kg of 50%.

The assay is the same for the next values; noted with them: Canis lupus familiaris, dose 2 mg/kg, dog, pentagastrin-stimulated.
Regarding `CCC(c1ccccn1)[S+]([O-])c1nc2ccccc2[nH]1` (stereo not shown) [Example 28], the inhibition in vivo at 2 mg/kg turned out to be 65%.

The assay is the same for the next values; noted with them: Canis lupus familiaris, dose 5 mg/kg, dog, pentagastrin-stimulated.
In turn, `Cc1cc(C)c2nc([S+]([O-])Cc3ccccn3)[nH]c2c1` (stereo not shown) [Example 2] had an inhibition in vivo at 5 mg/kg of 94%.

Take `CCc1ccc2[nH]c([S+]([O-])Cc3ccccn3)nc2c1` (stereo not shown) [Example 3]: the inhibition in vivo at 5 mg/kg turned out to be 50%.

`CCOC(=O)c1ccc2[nH]c([S+]([O-])Cc3ccccn3)nc2c1` (stereo not shown) [Example 9] had an inhibition in vivo at 5 mg/kg of 8%.

In the case of `CC(c1ccccn1)[S+]([O-])c1nc2ccccc2[nH]1` (stereo not shown) [Example 16], testing at 5 mg/kg gave an inhibition in vivo of 96%.

Consider `Cc1ccc2[nH]c([S+]([O-])Cc3ccccn3)nc2c1` (stereo not shown) [Example 21], for which the inhibition in vivo at 5 mg/kg is 95%.

`[O-][S+](Cc1ccccn1)c1nc2cc(Cl)ccc2[nH]1` (stereo not shown) [Example 22]: testing at 5 mg/kg gave an inhibition in vivo of 35%.

`CCCc1ccc2[nH]c([S+]([O-])Cc3ccccn3)nc2c1` (stereo not shown) [Example 25] yielded an inhibition in vivo at 5 mg/kg of 15%.

Regarding `Cc1ccc(C[S+]([O-])c2nc3cc(C)ccc3[nH]2)nc1` (stereo not shown) [Example 26], the inhibition in vivo at 5 mg/kg is greater than 75%.

In turn, `CCC(c1ccccn1)[S+]([O-])c1nc2ccccc2[nH]1` (stereo not shown) [Example 28] had an inhibition in vivo at 5 mg/kg of 80%.

`CCc1ccc2[nH]c([S+]([O-])C(C)c3ccccn3)nc2c1` (stereo not shown) [Example 30] showed an inhibition in vivo at 5 mg/kg of 60%.

With `Cc1ccnc(C[S+]([O-])c2nc3cc(C)ccc3[nH]2)c1` (stereo not shown) [Example 42], the inhibition in vivo at 5 mg/kg is greater than 75%.

Consider `Cc1cccnc1C[S+]([O-])c1nc2ccccc2[nH]1` (stereo not shown) [Example 43], for which the inhibition in vivo at 5 mg/kg is greater than 75%.

`CCc1ccc(C[S+]([O-])c2nc3cc(C)ccc3[nH]2)nc1` (stereo not shown) [Example 44]: the inhibition in vivo at 5 mg/kg was 95%.

Turning to `CCc1ccc(C[S+]([O-])c2nc3ccccc3[nH]2)nc1` (stereo not shown) [Example 45], the inhibition in vivo at 5 mg/kg worked out at 90%.

Compound `[O-][S+](Cc1ccccn1)c1nc2c(Cl)cccc2[nH]1` (stereo not shown) [Example 53] came in with an inhibition in vivo at 5 mg/kg of 30%.

Compound `Cc1cc2nc([S+]([O-])C(C)c3ccccn3)[nH]c2cc1C` (stereo not shown) [Example 55] returned an inhibition in vivo at 5 mg/kg of 30%.

Still in this assay, the particulars now being: Canis lupus familiaris, dose 10 mg/kg, dog, pentagastrin-stimulated.
The compound `Cc1cc(Cl)cc2[nH]c([S+]([O-])Cc3ccccn3)nc12` (stereo not shown) [Example 4] showed an inhibition in vivo at 10 mg/kg of 41%.

`CC(C)c1ccc2[nH]c([S+]([O-])Cc3ccccn3)nc2c1` (stereo not shown) [Example 23] displayed an inhibition in vivo at 10 mg/kg of 80%.
